From ChEMBL document CHEMBL1201862, “PubChem BioAssay data set” (2004)
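Protocol summary: plate cells (96-well), add compound at 5 concentrations, incubate 48 h, interpolate endpoints linearly. GI50 is the concentration that inhibits growth by half.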 Active and inactive are the calls of the source. Cut-off read from the data, not from the text of the source: active = GI50 up to about 1.1 µM and inactive = higher.

Legend:
Experiment in all cases: DTP human tumour cell line panel, 48 h
SN12C = test system: SN12C
HL-60 = test system: HL-60
SF-295 = test system: SF-295
DLD-1 = test system: DLD-1
UO-31 = test system: UO-31
RPMI-8226 = test system: RPMI-8226
SF-539 = test system: SF-539
HCT-15 = test system: HCT-15
M14 = test system: M14
OVCAR-8 = test system: OVCAR-8
A549 = test system: A549
NCI-H522 = test system: NCI-H522
U-251 = test system: U-251
EKVX = test system: EKVX
LOX IMVI = test system: LOX IMVI
A498 = test system: A498
SW-620 = test system: SW-620
TK-10 = test system: TK-10
HOP-18 = test system: HOP-18
XF498 = test system: XF498
K562 = test system: K562
LXFL 529 = test system: LXFL 529
HOP-62 = test system: HOP-62
ACHN = test system: ACHN
NCI-H460 = test system: NCI-H460
DMS-114 = test system: DMS-114
SF-268 = test system: SF-268
SK-OV-3 = test system: SK-OV-3
RXF 631 = test system: RXF 631
CCRF-CEM = test system: CCRF-CEM
RXF 393 = test system: RXF 393
MOLT-4 = test system: MOLT-4
HOP-92 = test system: HOP-92
SK-MEL-28 = test system: SK-MEL-28
COLO 205 = test system: COLO 205
KM-20L2 = test system: KM-20L2
NCI-H23 = test system: NCI-H23
DMS-273 = test system: DMS-273
HCT-116 = test system: HCT-116
SK-MEL-5 = test system: SK-MEL-5
NCI-H226 = test system: NCI-H226
IGROV-1 = test system: IGROV-1
KM12 = test system: KM12
UACC-62 = test system: UACC-62
Malme-3M = test system: Malme-3M
786-0 = test system: 786-0
HT-29 = test system: HT-29
M19-MEL = test system: M19-MEL
CAKI-1 = test system: CAKI-1
SK-MEL-2 = test system: SK-MEL-2
OVCAR-4 = test system: OVCAR-4
SNB-19 = test system: SNB-19
HCC 2998 = test system: HCC 2998
SNB-78 = test system: SNB-78
OVCAR-3 = test system: OVCAR-3
SNB-75 = test system: SNB-75
UACC-257 = test system: UACC-257
OVCAR-5 = test system: OVCAR-5
SR = test system: SR

Nc1ccn(C2OC(C(O)CO)C(O)C2O)c(=O)n1 (stereo unspecified)
GI50 (SN12C): > 100 µM (inactive) | GI50 (HL-60): > 100 µM (inactive) | GI50 (SF-295): > 100 µM (inactive) | GI50 (DLD-1): > 100 µM (inactive) | GI50 (UO-31): 69.2 µM (inactive) | GI50 (RPMI-8226): > 100 µM (inactive) | GI50 (SF-539): > 100 µM (inactive) | GI50 (HCT-15): > 100 µM | GI50 (M14): > 100 µM (inactive) | GI50 (OVCAR-8): > 100 µM (inactive) | GI50 (A549): > 100 µM (inactive) | GI50 (NCI-H522): > 100 µM (inactive) | GI50 (U-251): > 100 µM (inactive) | GI50 (EKVX): > 100 µM (inactive) | GI50 (LOX IMVI): > 100 µM (inactive) | GI50 (A498): > 100 µM (inactive) | GI50 (SW-620): > 100 µM (inactive) | GI50 (TK-10): > 100 µM (inactive) | GI50 (HOP-18): > 100 µM (inactive) | GI50 (XF498): > 100 µM (inactive) | GI50 (K562): > 100 µM (inactive) | GI50 (LXFL 529): > 100 µM (inactive) | GI50 (HOP-62): > 100 µM (inactive) | GI50 (ACHN): > 100 µM (inactive) | GI50 (NCI-H460): > 100 µM (inactive) | GI50 (DMS-114): > 100 µM (inactive) | GI50 (SF-268): > 100 µM (inactive) | GI50 (SK-OV-3): > 100 µM (inactive) | GI50 (RXF 631): > 100 µM (inactive) | GI50 (CCRF-CEM): > 100 µM (inactive) | GI50 (RXF 393): > 100 µM (inactive) | GI50 (MOLT-4): > 100 µM (inactive) | GI50 (HOP-92): > 100 µM (inactive) | GI50 (SK-MEL-28): > 100 µM (inactive) | GI50 (COLO 205): > 100 µM (inactive) | GI50 (KM-20L2): > 100 µM (inactive) | GI50 (NCI-H23): > 100 µM (inactive) | GI50 (DMS-273): > 100 µM (inactive) | GI50 (HCT-116): > 100 µM (inactive) | GI50 (SK-MEL-5): > 100 µM (inactive)

CCCCCC1CC=CC(NC(=O)OCc2ccccc2)C1/C=C/CCCC1OCCO1 (stereo unspecified)
GI50 (SN12C): > 100 µM (inactive) | GI50 (HL-60): 7.93 µM (inactive) | GI50 (NCI-H226): 30.9 µM (inactive) | GI50 (SF-295): 66.5 µM (inactive) | GI50 (DLD-1): > 66.5 µM (inactive) | GI50 (UO-31): 13.1 µM (inactive) | GI50 (RPMI-8226): 17.9 µM (inactive) | GI50 (IGROV-1): > 100 µM (inactive) | GI50 (SF-539): > 100 µM (inactive) | GI50 (KM12): 48 µM (inactive) | GI50 (HCT-15): 86.7 µM | GI50 (M14): > 100 µM (inactive) | GI50 (OVCAR-8): 73.6 µM (inactive) | GI50 (A549): 23.3 µM (inactive) | GI50 (UACC-62): > 93.5 µM (inactive) | GI50 (NCI-H522): 20.8 µM (inactive) | GI50 (U-251): 73.5 µM (inactive) | GI50 (Malme-3M): 50.6 µM (inactive) | GI50 (EKVX): 96.6 µM (inactive) | GI50 (786-0): > 100 µM (inactive) | GI50 (LOX IMVI): 57.7 µM (inactive) | GI50 (A498): 17.7 µM (inactive) | GI50 (SW-620): > 100 µM (inactive) | GI50 (TK-10): 97.7 µM (inactive) | GI50 (HOP-18): > 100 µM (inactive) | GI50 (XF498): 52 µM (inactive) | GI50 (K562): 24.9 µM (inactive) | GI50 (LXFL 529): 40.6 µM (inactive) | GI50 (HOP-62): > 100 µM (inactive) | GI50 (ACHN): 24.1 µM (inactive) | GI50 (NCI-H460): 51.6 µM (inactive) | GI50 (HT-29): > 100 µM (inactive) | GI50 (DMS-114): 21.4 µM (inactive) | GI50 (SF-268): > 42.8 µM (inactive) | GI50 (M19-MEL): > 91.4 µM (inactive) | GI50 (CAKI-1): 23.5 µM (inactive) | GI50 (SK-MEL-2): 35.2 µM (inactive) | GI50 (SK-OV-3): > 100 µM (inactive) | GI50 (RXF 631): 48.3 µM (inactive) | GI50 (CCRF-CEM): 47.5 µM (inactive) | GI50 (OVCAR-4): > 72.9 µM (inactive) | GI50 (RXF 393): 15.1 µM (inactive) | GI50 (SNB-19): 74.1 µM (inactive) | GI50 (MOLT-4): 12.5 µM (inactive) | GI50 (HCC 2998): 78.3 µM (inactive) | GI50 (HOP-92): > 45.7 µM (inactive) | GI50 (SK-MEL-28): > 36.5 µM (inactive) | GI50 (SNB-78): > 100 µM (inactive) | GI50 (COLO 205): 44.2 µM (inactive) | GI50 (KM-20L2): > 100 µM (inactive) | GI50 (NCI-H23): 44.7 µM (inactive) | GI50 (DMS-273): 36.2 µM (inactive) | GI50 (HCT-116): 35.8 µM (inactive) | GI50 (SK-MEL-5): 17.9 µM (inactive) | GI50 (OVCAR-3): 38.5 µM (inactive) | GI50 (SNB-75): > 56 µM (inactive) | GI50 (UACC-257): 50.7 µM (inactive) | GI50 (OVCAR-5): > 53.8 µM (inactive)

[N-]=[N+]=NC1C2CC3CC(C2)CC1C3 (stereo unspecified)
GI50 (SN12C): > 100 µM (inactive) | GI50 (NCI-H226): > 100 µM (inactive) | GI50 (SF-295): > 100 µM (inactive) | GI50 (UO-31): > 100 µM (inactive) | GI50 (RPMI-8226): > 100 µM (inactive) | GI50 (IGROV-1): > 100 µM (inactive) | GI50 (SF-539): > 100 µM (inactive) | GI50 (KM12): > 100 µM (inactive) | GI50 (M14): > 100 µM (inactive) | GI50 (SR): > 100 µM (inactive) | GI50 (OVCAR-8): > 100 µM (inactive) | GI50 (A549): > 100 µM (inactive) | GI50 (UACC-62): > 100 µM (inactive) | GI50 (NCI-H522): > 100 µM (inactive) | GI50 (U-251): > 100 µM (inactive) | GI50 (Malme-3M): > 100 µM (inactive) | GI50 (EKVX): > 100 µM (inactive) | GI50 (786-0): > 100 µM (inactive) | GI50 (LOX IMVI): > 100 µM (inactive) | GI50 (A498): > 100 µM (inactive) | GI50 (SW-620): > 100 µM (inactive) | GI50 (TK-10): > 100 µM (inactive) | GI50 (HOP-18): > 100 µM (inactive) | GI50 (K562): > 100 µM (inactive) | GI50 (LXFL 529): > 100 µM (inactive) | GI50 (HOP-62): > 100 µM (inactive) | GI50 (ACHN): > 100 µM (inactive) | GI50 (NCI-H460): > 100 µM (inactive) | GI50 (HT-29): > 100 µM (inactive) | GI50 (DMS-114): > 100 µM (inactive) | GI50 (M19-MEL): > 100 µM (inactive) | GI50 (CAKI-1): > 100 µM (inactive) | GI50 (SK-MEL-2): > 100 µM (inactive) | GI50 (SK-OV-3): > 100 µM (inactive) | GI50 (RXF 631): > 100 µM (inactive) | GI50 (CCRF-CEM): > 100 µM (inactive) | GI50 (OVCAR-4): > 100 µM (inactive) | GI50 (SNB-19): > 100 µM (inactive) | GI50 (MOLT-4): > 100 µM (inactive) | GI50 (HCC 2998): > 100 µM (inactive) | GI50 (HOP-92): > 100 µM (inactive) | GI50 (SK-MEL-28): > 100 µM (inactive) | GI50 (SNB-78): > 100 µM (inactive) | GI50 (COLO 205): > 100 µM (inactive) | GI50 (KM-20L2): > 100 µM (inactive) | GI50 (NCI-H23): > 100 µM (inactive) | GI50 (DMS-273): > 100 µM (inactive) | GI50 (HCT-116): > 100 µM (inactive) | GI50 (SK-MEL-5): > 100 µM (inactive) | GI50 (OVCAR-3): > 100 µM (inactive) | GI50 (SNB-75): > 100 µM (inactive) | GI50 (UACC-257): > 100 µM (inactive) | GI50 (OVCAR-5): > 100 µM (inactive)
